{"source": "patent US12187759B2", "about": "“TLR7 agonists” (Primmune Therapeutics, Inc., priority 2019, dated 2025)", "key": {"human TLR8": {"target": "T1, human TLR8 (Homo sapiens, UniProt Q9NR97)", "T1 construct": "host or cells: HEK293", "T1 sequence (Q9NR97 27-1041)": "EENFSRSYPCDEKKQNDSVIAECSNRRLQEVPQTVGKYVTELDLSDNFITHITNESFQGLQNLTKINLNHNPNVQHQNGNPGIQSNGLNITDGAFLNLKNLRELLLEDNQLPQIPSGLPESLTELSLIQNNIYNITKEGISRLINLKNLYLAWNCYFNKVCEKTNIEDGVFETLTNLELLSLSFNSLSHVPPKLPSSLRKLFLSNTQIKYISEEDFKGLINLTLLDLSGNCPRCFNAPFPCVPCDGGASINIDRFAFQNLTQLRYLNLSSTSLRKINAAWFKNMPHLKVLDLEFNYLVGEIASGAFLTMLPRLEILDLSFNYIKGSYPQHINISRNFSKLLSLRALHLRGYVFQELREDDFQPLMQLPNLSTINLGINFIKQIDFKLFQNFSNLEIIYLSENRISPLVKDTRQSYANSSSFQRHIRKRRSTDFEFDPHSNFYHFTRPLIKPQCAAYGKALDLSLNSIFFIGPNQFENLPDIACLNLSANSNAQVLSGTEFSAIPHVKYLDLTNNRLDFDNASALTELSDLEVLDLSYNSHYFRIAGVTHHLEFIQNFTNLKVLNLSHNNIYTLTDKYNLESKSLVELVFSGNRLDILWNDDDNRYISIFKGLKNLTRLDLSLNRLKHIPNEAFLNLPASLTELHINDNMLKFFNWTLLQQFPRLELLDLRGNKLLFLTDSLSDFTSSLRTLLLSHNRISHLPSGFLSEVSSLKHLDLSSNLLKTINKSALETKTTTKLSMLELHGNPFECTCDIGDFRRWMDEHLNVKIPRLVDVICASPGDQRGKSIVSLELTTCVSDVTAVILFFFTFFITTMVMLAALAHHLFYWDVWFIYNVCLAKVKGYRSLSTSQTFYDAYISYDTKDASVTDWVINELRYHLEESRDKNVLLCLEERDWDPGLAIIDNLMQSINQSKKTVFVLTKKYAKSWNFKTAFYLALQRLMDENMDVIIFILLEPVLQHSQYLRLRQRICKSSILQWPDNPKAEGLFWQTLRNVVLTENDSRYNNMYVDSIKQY", "assay": "TLR8 reporter cell assay (HEK293 cells stably expressing human TLR8 with NF-κB-driven SEAP reporter)", "assay_type": "cell-based", "conditions": "concentrations up to 500 μM; significant = >5% of ymax", "text": "The engagement of TLRs by cognate ligands triggers downstream signaling cascades, leading to the activation of NF-κB and other transcription factors which initiate various immunomodulatory effects. The human embryonic kidney cell line, HEK293, is essentially non-responsive to TLR agonists, but ectopic expression of TLRs in these cells allows cognate agonists to activate endogenous NF-κB. Accordingly, the HEK293-TLR-NF-κB inducible reporter system is used to assay TLR agonists.\nHEK293 cell lines stably expressing human TLR7 or TLR8 together with an NF-κB-driven-secreted alkaline phosphatase (SEAP) reporter were invented at InvivoGen (San Diego, California, USA) and used to assess compounds of the present invention for TLR7 and TLR8 agonist activities. Cells were seeded at 2-5×10^4 cells/well in 96 well plates (200 μl/well) and treated with various concentrations of compound (10 μl) for 15-24 hours. SEAP activity was determined by measuring OD at 650 nm; the media used to culture the cell lines contains the reagents required for SEAP detection. […]"}, "human TLR7": {"target": "T2, human TLR7 (Homo sapiens, UniProt Q9NYK1)", "T2 construct": "host or cells: HEK293", "T2 sequence (Q9NYK1 27-1049)": "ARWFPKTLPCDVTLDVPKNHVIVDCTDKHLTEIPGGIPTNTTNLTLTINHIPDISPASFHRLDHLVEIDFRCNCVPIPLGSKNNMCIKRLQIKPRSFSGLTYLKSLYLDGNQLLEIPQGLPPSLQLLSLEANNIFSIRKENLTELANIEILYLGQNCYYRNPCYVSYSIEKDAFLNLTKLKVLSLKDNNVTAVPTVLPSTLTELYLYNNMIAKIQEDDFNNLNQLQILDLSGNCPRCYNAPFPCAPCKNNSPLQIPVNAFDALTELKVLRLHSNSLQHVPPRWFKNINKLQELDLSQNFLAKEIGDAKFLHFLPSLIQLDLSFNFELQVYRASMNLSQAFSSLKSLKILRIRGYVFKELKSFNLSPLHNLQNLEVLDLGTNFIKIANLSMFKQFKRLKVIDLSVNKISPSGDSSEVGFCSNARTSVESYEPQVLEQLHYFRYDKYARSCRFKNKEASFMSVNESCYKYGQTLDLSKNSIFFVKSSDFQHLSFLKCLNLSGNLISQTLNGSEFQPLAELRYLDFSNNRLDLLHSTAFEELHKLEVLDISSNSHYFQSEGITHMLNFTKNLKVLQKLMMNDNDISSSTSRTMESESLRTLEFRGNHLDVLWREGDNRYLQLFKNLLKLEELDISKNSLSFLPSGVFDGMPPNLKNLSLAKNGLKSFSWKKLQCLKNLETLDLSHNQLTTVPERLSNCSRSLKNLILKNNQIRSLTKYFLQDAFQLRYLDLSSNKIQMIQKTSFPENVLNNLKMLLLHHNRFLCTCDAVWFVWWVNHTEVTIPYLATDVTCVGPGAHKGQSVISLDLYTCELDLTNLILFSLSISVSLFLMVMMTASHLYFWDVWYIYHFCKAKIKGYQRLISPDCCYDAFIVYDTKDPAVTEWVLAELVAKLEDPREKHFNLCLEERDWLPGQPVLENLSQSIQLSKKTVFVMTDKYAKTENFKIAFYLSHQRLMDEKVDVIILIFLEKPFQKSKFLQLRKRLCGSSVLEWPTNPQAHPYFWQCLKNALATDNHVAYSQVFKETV", "assay": "TLR7 reporter cell assay (HEK293 cells stably expressing human TLR7 with NF-κB-driven SEAP reporter)", "assay_type": "cell-based", "conditions": "15-24 hours", "how_it_was_run": "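HEK293 cells stably expressing human TLR7 with an NF-κB-driven SEAP reporter, treated with compound for 15-24 hours. SEAP read at OD 650 nm. EC50 fitted by nonlinear least squares, maximum set by 28.5 μM resiquimod.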"}}}
{"smiles": "CC[C@H](O)[C@@H]1C[C@@H](O)[C@H](n2c(=O)sc3c(=O)[nH]c(N)nc32)O1", "note": "[Compound A, 5-amino-3-((2R,3R,5S)-3-hydroxy-5-((S)-1-hydroxypropyl)tetrahydrofuran-2-yl)thiazolo[4,5-d]pyrimidine-2,7(3H,6H)-dione, reference compound]", "values": [{"measurement": "activity in TLR8 reporter cell assay (% of ymax for TLR8 as measured at 28.5 μM resiquimod)", "setting": "human TLR8", "result": "> 5 % of ymax"}, {"measurement": "Emax at 500 µM", "setting": "human TLR7; HEK293, 500 μM compound, SEAP activity (OD 650 nm) relative to 28.5 μM resiquimod, read-out: Response at 500 μM Compound as a Percent of Resiquimod Response", "result": 74, "unit": "%"}, {"measurement": "EC50", "setting": "human TLR7; fit of SEAP dose response, ymax from 28.5 μM resiquimod", "result": 51, "unit": "µM"}]}
